Test results taken from DBAASP.
In brackets after ≈: the same amount, converted by molar mass.

Experiments:
Experiment in all cases: ≥ marks a high value that may be exact or a test limit, other limits are often not marked, values filed in µg/mL are converted to µM
[1] = system: Candida albicans ATCC 2002
[2] = system: Candida albicans ATCC 90028
[3] = system: Escherichia coli ATCC 25922
[4] = system: Staphylococcus aureus ATCC 25923
Candida albicans = system: Candida albicans
Escherichia coli = system: Escherichia coli
Staphylococcus aureus = system: Staphylococcus aureus
Bacillus cereus = system: Bacillus cereus
[5] = system: Pseudomonas aeruginosa ATCC 9027
[6] = system: Staphylococcus aureus ATCC 6538
[7] = system: Pseudomonas aeruginosa ATCC 27853
[8] = system: Staphylococcus aureus ATCC 29213
[9] = system: Staphylococcus aureus NCTC 10788

CC[C@H](C)[C@H](NC(=O)[C@@H](NC(=O)[C@@H](NC(=O)[C@@H]1CCCN1C(=O)[C@H](Cc1c[nH]c2ccccc12)NC(=O)[C@H](Cc1ccccc1)NC(=O)[C@H](CCCN=C(N)N)NC(=O)[C@H](CCCCN)NC(=O)[C@@H](NC(=O)[C@@H](N)CCCN=C(N)N)[C@@H](C)CC)C(C)C)C(C)C)C(=O)N[C@@H](CCCN=C(N)N)C(=O)O [RIKRFWPVVIR]
MIC [1]: ≥ 102 µM

CC[C@H](C)[C@@H]1NC(=O)[C@H](CCCCN)NC(=O)[C@@H](NC(=O)[C@H](CCCCN)NC(=O)[C@H](CC(C)C)NC(=O)[C@H](CCCCN)NC(=O)[C@H](CC(=O)O)NC(=O)[C@H](CC(C)C)NC(=O)[C@H](CCSC)NC(=O)[C@H](CCC(N)=O)NC(=O)CNC(=O)[C@H](C)NC(=O)[C@H](CC(C)C)NC(=O)[C@H](CC(N)=O)NC(=O)[C@H](CCCCN)NC(=O)[C@H](C)NC(=O)[C@H](C)NC(=O)[C@H](CC(N)=O)NC(=O)[C@H](CCCCN)NC(=O)[C@@H](NC(=O)[C@@H](NC(=O)[C@H](CC(=O)O)NC(=O)[C@H](CCSC)NC(=O)[C@H](CC(C)C)NC(=O)CN)[C@@H](C)O)C(C)C)CSSC[C@@H](C(=O)O)NC(=O)[C@H](CO)NC(=O)CNC(=O)[C@H]([C@@H](C)O)NC1=O [GLMDTVKNAAKNLAGQMLDKLKCKITGSC]
MIC [2]: ≥ 100 µM | MIC [3]: 50 µM (≈ 153 µg/mL) | MIC [4]: > 200 µM

CC[C@H](C)[C@H](NC(=O)[C@H](CCCCN)NC(=O)[C@H](CO)NC(=O)[C@H](C)NC(=O)[C@@H](NC(=O)[C@H](Cc1ccccc1)NC(=O)CNC(=O)[C@H](CC(C)C)NC(=O)CNC(=O)[C@@H](NC(=O)[C@H](CCCCN)NC(=O)CNC(=O)[C@H](CC(C)C)NC(=O)[C@H](CC(N)=O)NC(=O)[C@H](CCCCN)NC(=O)[C@H](CC(C)C)NC(=O)[C@@H](NC(=O)[C@H](CO)NC(=O)[C@H](CC(C)C)NC(=O)[C@H](CCSC)NC(=O)[C@@H](N)CO)C(C)C)C(C)C)C(C)C)C(=O)N[C@@H](CC(N)=O)C(=O)N[C@@H](CCCCN)C(=O)N[C@@H](CCC(N)=O)C(=O)N[C@@H](CO)C(=O)O [SMLSVLKNLGKVGLGFVASKINKQS]
MIC (Candida albicans): 100 µM (≈ 262 µg/mL) | MIC (Escherichia coli): 20 µM (≈ 52.4 µg/mL) | MIC (Staphylococcus aureus): 100 µM (≈ 262 µg/mL)

CC(C)C[C@H](NC(=O)CNC(=O)[C@H](C)NC(=O)[C@@H](N)CCCCN)C(=O)N[C@@H](C)C(=O)N[C@@H](Cc1ccccc1)C(=O)N1CCC[C@H]1C(=O)N[C@H](C(=O)NCC(=O)N[C@@H](CCCN=C(N)N)C(=O)N[C@H](C(=O)N[C@@H](Cc1cnc[nH]1)C(=O)N[C@@H](CCCN=C(N)N)C(=O)N[C@@H](CC(C)C)C(=O)N[C@@H](CC(C)C)C(=O)N[C@@H](CCCN=C(N)N)C(=O)N[C@@H](CCCCN)C(=O)O)C(C)C)C(C)C [KAGLAFPVGRVHRLLRK]
MIC (Candida albicans): 133 µM (≈ 255 µg/mL)

CC(C)C[C@H](NC(=O)[C@@H](N)Cc1ccccc1)C(=O)NCC(=O)N[C@@H](CCCCN)C(=O)N[C@H](C(=O)N[C@@H](Cc1ccccc1)C(=O)N[C@@H](CCCCN)C(=O)NCC(=O)N[C@@H](C)C(=O)N[C@@H](CO)C(=O)N[C@@H](CCCCN)C(=O)N[C@H](C(=O)N[C@@H](Cc1ccccc1)C(=O)NCC(=O)N[C@@H](C)C(=O)N[C@H](C(=O)N[C@@H](Cc1ccccc1)C(=O)NCC(=O)N[C@@H](CCCCN)C(=O)N[C@H](C(=O)O)C(C)C)C(C)C)C(C)C)C(C)C [FLGKVFKGASKVFGAVFGKV]
MIC (Bacillus cereus): ≥ 61.3 µM | MIC (Escherichia coli): 15.3 µM (≈ 32 µg/mL) | MIC (Staphylococcus aureus): > 123 µM

CC(C)C[C@H](NC(=O)[C@H](CCCCN)NC(=O)[C@H](Cc1ccccc1)NC(=O)[C@@H](NC(=O)[C@H](CCCCN)NC(=O)CNC(=O)[C@H](CC(C)C)NC(=O)[C@@H](N)Cc1ccccc1)C(C)C)C(=O)N[C@@H](C)C(=O)N[C@@H](CO)C(=O)N[C@@H](CCCCN)C(=O)N[C@H](C(=O)N[C@@H](Cc1ccccc1)C(=O)NCC(=O)N[C@@H](C)C(=O)N[C@H](C(=O)N[C@@H](Cc1ccccc1)C(=O)NCC(=O)N[C@@H](CCCCN)C(=O)N[C@H](C(=O)O)C(C)C)C(C)C)C(C)C [FLGKVFKLASKVFGAVFGKV]
MIC (Bacillus cereus): 3.73 µM (≈ 8 µg/mL) | MIC (Escherichia coli): 7.47 µM (≈ 16 µg/mL) | MIC (Staphylococcus aureus): 3.73 µM (≈ 8 µg/mL)

CC[C@H](C)[C@H](NC(=O)[C@H](CCCCN)NC(=O)[C@H](CS)NC(=O)[C@H](C)NC(=O)[C@@H](NC(=O)[C@H](Cc1ccccc1)NC(=O)CNC(=O)[C@H](CC(C)C)NC(=O)CNC(=O)[C@@H](NC(=O)[C@H](CCCCN)NC(=O)CNC(=O)[C@H](CC(C)C)NC(=O)[C@H](CC(N)=O)NC(=O)[C@H](CCCCN)NC(=O)[C@H](CC(C)C)NC(=O)[C@@H](NC(=O)[C@H](C)NC(=O)[C@H](CC(C)C)NC(=O)[C@H](CCSC)NC(=O)[C@@H](N)CO)C(C)C)C(C)C)C(C)C)C(=O)N[C@@H](CC(N)=O)C(=O)N[C@@H](CCCCN)C(=O)N[C@@H](CCC(N)=O)C(=O)N[C@@H](CS)C(=O)O [SMLAVLKNLGKVGLGFVACKINKQC]
MIC (Candida albicans): 100 µM (≈ 264 µg/mL) | MIC (Escherichia coli): 10 µM (≈ 26.4 µg/mL) | MIC (Staphylococcus aureus): 100 µM (≈ 264 µg/mL)

CC[C@H](C)[C@H](NC(=O)[C@H](CC(C)C)NC(=O)[C@H](CCCCN)NC(=O)CNC(=O)[C@@H](NC(=O)[C@@H](N)Cc1ccccc1)[C@@H](C)CC)C(=O)N[C@@H](CO)C(=O)N[C@@H](C)C(=O)N[C@@H](C)C(=O)N[C@@H](CO)C(=O)NCC(=O)N[C@@H](CC(C)C)C(=O)N[C@@H](CC(C)C)C(=O)N[C@@H](CO)C(=O)N[C@@H](Cc1cnc[nH]1)C(=O)N[C@@H](CC(C)C)C(N)=O [FIGKLISAASGLLSHL]
MIC (Candida albicans): 150 µM (≈ 244 µg/mL) | MIC (Escherichia coli): 38.4 µM (≈ 62.4 µg/mL) | MIC (Staphylococcus aureus): 9.5 µM (≈ 15.4 µg/mL)

CC(C)C[C@H](NC(=O)[C@H](Cc1ccccc1)NC(=O)[C@H](CCCCN)NC(=O)[C@H](CCCCN)NC(=O)[C@H](CC(C)C)NC(=O)[C@H](C)NC(=O)[C@H](CCCCN)NC(=O)[C@H](C)NC(=O)[C@H](CC(C)C)NC(=O)[C@H](CC(C)C)NC(=O)[C@H](CCCCN)NC(=O)[C@H](C)NC(=O)[C@@H](N)Cc1ccccc1)C(N)=O [FAKLLAKALKKFL]
MIC [5]: 67.1 µM (≈ 99.9 µg/mL) | MIC [6]: 6.71 µM (≈ 9.99 µg/mL)

CC[C@H](C)[C@H](NC(=O)[C@H](C)NC(=O)[C@H](CCCN=C(N)N)NC(=O)[C@H](Cc1ccc(O)cc1)NC(=O)[C@H](CC(C)C)NC(=O)[C@H](CC(N)=O)NC(=O)[C@H](Cc1ccc(O)cc1)NC(=O)CNC(=O)[C@H](C)NC(=O)[C@@H](NC(=O)[C@@H](NC(=O)[C@@H](NC(=O)[C@H](CCCN=C(N)N)NC(=O)[C@@H](NC(=O)[C@@H](N)C(C)C)[C@@H](C)CC)[C@@H](C)O)C(C)C)C(C)C)C(=O)N[C@@H](CCCCN)C(=O)N[C@@H](CCCCN)C(=O)N[C@@H](CCCCN)C(=O)O [VIRTVVAGYNLYRAIKKK]
MIC [1]: ≥ 35.8 µM

CC[C@H](C)[C@H](NC(=O)[C@H](C)NC(=O)[C@H](CCCN=C(N)N)NC(=O)[C@H](Cc1ccc(O)cc1)NC(=O)[C@H](CC(C)C)NC(=O)[C@H](CC(N)=O)NC(=O)[C@H](Cc1ccc(O)cc1)NC(=O)CNC(=O)[C@H](C)NC(=O)[C@@H](NC(=O)[C@@H](NC(=O)[C@@H](NC(=O)[C@H](CCCN=C(N)N)NC(=O)[C@@H](NC(=O)[C@@H](NC(=O)[C@@H](N)C(C)C)C(C)C)[C@@H](C)CC)[C@@H](C)O)C(C)C)C(C)C)C(=O)N[C@@H](CCCCN)C(=O)N[C@@H](CCCCN)C(=O)N[C@@H](CCCCN)C(=O)O [VVIRTVVAGYNLYRAIKKK]
MIC [1]: 25.7 µM (≈ 56.3 µg/mL)

CC[C@H](C)[C@H](NC(=O)[C@H](CCCN=C(N)N)NC(=O)[C@H](CCCCN)NC(=O)[C@@H](NC(=O)[C@H](CCCCN)NC(=O)[C@H](CCCN=C(N)N)NC(=O)[C@@H](N)CCCCN)C(C)C)C(=O)N[C@@H](CCCCN)C(=O)N[C@@H](CCCCN)C(=O)N[C@@H](Cc1ccccc1)C(=O)N[C@@H](CC(C)C)C(=O)N[C@@H](CCCN=C(N)N)C(=O)O [KRKVKRIKKFLR]
MIC [2]: 1.25 µM (≈ 2 µg/mL) | MIC [3]: 0.625 µM (≈ 1 µg/mL) | MIC [7]: 2.5 µM (≈ 4 µg/mL) | MIC [8]: 20 µM (≈ 32 µg/mL)

CC(C)C[C@H](NC(=O)[C@H](CCCCN)NC(=O)[C@H](Cc1ccccc1)NC(=O)[C@@H](NC(=O)[C@@H](NC(=O)CNC(=O)[C@H](CC(C)C)NC(=O)[C@@H](N)Cc1ccccc1)C(C)C)C(C)C)C(=O)N[C@@H](C)C(=O)N[C@@H](CO)C(=O)N[C@@H](CCCCN)C(=O)N[C@H](C(=O)N[C@@H](Cc1ccccc1)C(=O)N[C@@H](CCCCN)C(=O)N[C@@H](C)C(=O)N[C@H](C(=O)N[C@@H](Cc1ccccc1)C(=O)NCC(=O)N[C@@H](CCCCN)C(=O)N[C@H](C(=O)O)C(C)C)C(C)C)C(C)C [FLGVVFKLASKVFKAVFGKV]
MIC (Bacillus cereus): 3.66 µM (≈ 8 µg/mL) | MIC (Escherichia coli): 58.6 µM (≈ 128 µg/mL) | MIC (Staphylococcus aureus): 3.66 µM (≈ 8 µg/mL)

CC(=O)N[C@@H](CCCCN)C(=O)N[C@@H](Cc1ccc(O)cc1)C(=O)N[C@H](C(=O)NCC(=O)N[C@@H](CCCCN)C(=O)N[C@@H](CS)C(=O)N[C@@H](Cc1ccc(O)cc1)C(=O)N[C@@H](CCCCN)C(=O)N[C@@H](CCCCN)C(=O)N[C@@H](CCCCN)C(=O)N[C@@H](CC(N)=O)C(=O)N[C@@H](CCC(=O)O)C(=O)N[C@@H](CS)C(=O)N[C@@H](CCCCN)C(N)=O)[C@@H](C)O [KYTGKCYKKKNECK]
MIC (Candida albicans): 2.5 µM (≈ 4.41 µg/mL)

CC(C)C[C@H](NC(=O)[C@H](CC(C)C)NC(=O)[C@H](CO)NC(=O)CNC(=O)[C@H](CC(C)C)NC(=O)[C@H](CC(C)C)NC(=O)CNC(=O)[C@H](CC(C)C)NC(=O)[C@@H](N)Cc1ccccc1)C(N)=O [FLGLLGSLL]
MIC [9]: ≥ 34 µM

NCCCC[C@H](NC(=O)[C@H](CCC(=O)O)NC(=O)[C@@H](N)CC(=O)O)C(=O)NCC(=O)N1CCC[C@H]1C(=O)N[C@@H](CCCCN)C(=O)N[C@@H](Cc1c[nH]c2ccccc12)C(=O)N[C@@H](CCCCN)C(=O)N[C@@H](CCCN=C(N)N)C(=O)O [DEKGPKWKR]
MIC (Candida albicans): 30.8 µM (≈ 35.2 µg/mL)
